According to ChEMBL document CHEMBL1135871, “Sordarin oxazepine derivatives as potent antifungal agents” (2002):
Converted amounts (≈) assume the structure as drawn.

What was measured:
Format in all cases: functional
Nakaseomyces glabratus = experiment: Minimum inhibitory concentration required to inhibit 90-100%growth of Candida glabrata
Candida albicans = experiment: Minimum inhibitory concentration required to inhibit 90-100%growth of Candida albicans
Cryptococcus neoformans = experiment: Minimum inhibitory concentration required to inhibit 90-100% growth of Cryptococcus neoformans

Row | MIC (Nakaseomyces glabratus) | MIC (Candida albicans) | MIC (Cryptococcus neoformans) | Compound
1 | 2 µg/mL (≈ 3.85 µM) | 0.125 µg/mL (≈ 0.24 µM) | 1 µg/mL (≈ 1.92 µM) | C=C(Cl)CN1CC[C@H](OCC23C[C@@H]4[C@H](C)CC[C@H]4C4(C=O)CC2C=C(C(C)C)[C@@]34C(=O)O)O[C@H](C)C1
2 | 32 µg/mL (≈ 57.4 µM) | 1 µg/mL (≈ 1.79 µM) | > 128 µg/mL | CC(C)C1=CC2CC3(C=O)[C@@H]4CC[C@@H](C)[C@H]4CC2(CO[C@@H]2O[C@H](C)CN(CCC(F)(F)F)C[C@@H]2O)[C@]13C(=O)O
3 | 1 µg/mL (≈ 1.72 µM) | < 0.06 µg/mL | > 128 µg/mL | COc1ccc(CN2C[C@@H](C)O[C@@H](OCC34C[C@@H]5[C@H](C)CC[C@H]5C5(C=O)CC3C=C(C(C)C)[C@@]45C(=O)O)[C@@H](O)C2)cc1
4 | 0.125 µg/mL (≈ 0.247 µM) | < 0.06 µg/mL | 16 µg/mL (≈ 31.6 µM) | C=C(Cl)CN1C[C@H](OCC23C[C@@H]4[C@H](C)CC[C@H]4C4(C=O)CC2C=C(C(C)C)[C@@]34C(=O)O)O[C@H](C)C1
5 | 64 µg/mL (≈ 113 µM) | 2 µg/mL (≈ 3.52 µM) | > 128 µg/mL | COc1ccc(N2C[C@@H](C)O[C@@H](OCC34C[C@@H]5[C@H](C)CC[C@H]5C5(C=O)CC3C=C(C(C)C)[C@@]45C(=O)O)[C@@H](O)C2)cc1
6 | 32 µg/mL (≈ 59.7 µM) | 0.5 µg/mL (≈ 0.933 µM) | 4 µg/mL (≈ 7.46 µM) | C=C(Cl)CN1C[C@@H](C)O[C@@H](OCC23C[C@@H]4[C@H](C)CC[C@H]4C4(C=O)CC2C=C(C(C)C)[C@@]34C(=O)O)[C@@H](O)C1
7 | > 128 µg/mL | 2 µg/mL (≈ 3.41 µM) | 128 µg/mL (≈ 218 µM) | CC(C)C1=CC2CC3(C=O)[C@@H]4CC[C@@H](C)[C@H]4CC2(CO[C@@H]2O[C@H](C)CN(Cc4ccccc4Cl)C[C@@H]2O)[C@]13C(=O)O
8 | > 128 µg/mL | > 16 µg/mL | > 128 µg/mL | CC(C)C1=CC2CC3(C=O)[C@@H]4CC[C@@H](C)[C@H]4CC2(CO[C@@H]2O[C@H](C)CN(CC4CC4)C[C@@H]2O)[C@]13C(=O)O
9 | > 128 µg/mL | > 128 µg/mL | > 128 µg/mL | CC(C)C1=CC2CC3(C=O)[C@@H]4CC[C@@H](C)[C@H]4CC2(CO[C@@H]2O[C@H](C)CN(CCc4ncc[nH]4)C[C@@H]2O)[C@]13C(=O)O
10 | 64 µg/mL (≈ 116 µM) | 4 µg/mL (≈ 7.27 µM) | > 128 µg/mL | C=C(Cl)CN1C[C@@H](C)O[C@@H](OCC23C[C@@H]4[C@H](C)CC[C@H]4C4(C=O)CC2C=C(C(C)C)[C@@]34C(=O)O)[C@@H](OC)C1
11 | > 128 µg/mL | 2 µg/mL (≈ 3.6 µM) | 32 µg/mL (≈ 57.6 µM) | Cc1coc(CN2C[C@@H](C)O[C@@H](OCC34C[C@@H]5[C@H](C)CC[C@H]5C5(C=O)CC3C=C(C(C)C)[C@@]45C(=O)O)[C@@H](O)C2)c1
12 | 128 µg/mL (≈ 255 µM) | 8 µg/mL (≈ 15.9 µM) | > 128 µg/mL | C=CCN1C[C@@H](C)O[C@@H](OCC23C[C@@H]4[C@H](C)CC[C@H]4C4(C=O)CC2C=C(C(C)C)[C@@]34C(=O)O)[C@@H](O)C1
13 | 64 µg/mL (≈ 124 µM) | 0.125 µg/mL (≈ 0.242 µM) | > 64 µg/mL | C=C(C)CN1C[C@@H](C)O[C@@H](OCC23C[C@@H]4[C@H](C)CC[C@H]4C4(C=O)CC2C=C(C(C)C)[C@@]34C(=O)O)[C@@H](O)C1
14 | 128 µg/mL (≈ 229 µM) | 2 µg/mL (≈ 3.59 µM) | 32 µg/mL (≈ 57.4 µM) | CC(C)C1=CC2CC3(C=O)[C@@H]4CC[C@@H](C)[C@H]4CC2(CO[C@@H]2O[C@H](C)CN(Cc4cccs4)C[C@@H]2O)[C@]13C(=O)O
15 | 2 µg/mL (≈ 3.72 µM) | < 0.06 µg/mL | 16 µg/mL (≈ 29.7 µM) | C=C(Cl)CN1C[C@@H](C)O[C@@H](OCC23C[C@@H]4[C@H](C)CC[C@H]4C4(C=O)CC2C=C(C(C)C)[C@@]34C(=O)O)[C@H](F)C1
16 | > 128 µg/mL | 2 µg/mL (≈ 3.51 µM) | > 128 µg/mL | CC(C)C1=CC2CC3(C=O)[C@@H]4CC[C@@H](C)[C@H]4CC2(CO[C@@H]2O[C@H](C)CN(CCC4=CCCCC4)C[C@@H]2O)[C@]13C(=O)O
17 | 16 µg/mL (≈ 27.7 µM) | 8 µg/mL (≈ 13.8 µM) | > 128 µg/mL | C=C(Cl)CN1C[C@@H](C)O[C@@H](OCC23C[C@@H]4[C@H](C)CC[C@H]4C4(C=O)CC2C=C(C(C)C)[C@@]34C(=O)O)[C@@H](OC(C)=O)C1
18 | > 128 µg/mL | 16 µg/mL (≈ 30.8 µM) | > 128 µg/mL | COCCN1C[C@@H](C)O[C@@H](OCC23C[C@@H]4[C@H](C)CC[C@H]4C4(C=O)CC2C=C(C(C)C)[C@@]34C(=O)O)[C@@H](O)C1
19 | > 128 µg/mL | 16 µg/mL (≈ 32.5 µM) | 8 µg/mL (≈ 16.2 µM) | CO[C@H]1[C@@H](O)[C@H](O)[C@H](OC[C@@]23C[C@@H]4[C@H](C)CC[C@H]4[C@@]4(C=O)CC2C=C(C(C)C)[C@@]34C(=O)O)O[C@@H]1C [SORDARIN]
20 | > 128 µg/mL | > 128 µg/mL | > 128 µg/mL | CC(C)C1=CC2CC3(C=O)[C@@H]4CC[C@@H](C)[C@H]4CC2(CO[C@@H]2O[C@H](C)[C@@H](O)[C@@H](O)[C@@H]2O)[C@]13C(=O)O
